Laboratory results from patent US11130741B2 (Bioimics AB, priority 2016, dated 2021).
Values after ≈ are worked out from the molar mass of the structure shown.

Experiments:
[1] = system: E. coli RNase P RNA, M1 RNA; test: Inhibition of bacterial RNase P activity, IC50 determination (cleavage of pATSerUG by M1 RNA); assay type: biochemical; details: NI = No inhibition
[2] = system: Escherichia coli (ATCC25922); test: MIC, broth microdilution (CLSI), Escherichia coli ATCC25922; details: ATCC25922, read-out: E. coli MIC, Table 15, NI = No inhibition
[3] = system: Staphylococcus aureus (ATCC25923); test: MIC, broth microdilution (CLSI), Staphylococcus aureus ATCC25923; details: ATCC25923, read-out: S. aureus ("Clinical") MIC

Row | Compound | IC50 [1] | MIC [2] | MIC [3] | IC50 ([1]; trifluoroacetic Acid Salt)
1 | CN(C)CCCN1c2ccccc2Sc2cc(-c3cccc4cn[nH]c34)ccc21 [compound 129, 3-(3-(1H-indazol-7-yl)-10H-phenothiazin-10-yl)-N,N-dimethylpropan-1-amine] | > 100 µM | > 100 µg/mL | 6 µg/mL (≈ 15 µM) | 
2 | FC(F)(F)c1cc(NC2CCNCC2)c2c(c1)Sc1cc(-c3cc4ccccc4[nH]3)ccc1N2.O=C(O)C(F)(F)F [compound 212, 7-(1H-indol-2-yl)-N-(piperidin-4-yl)-3-(trifluoromethyl)-10H-phenothiazin-1-amine trifluoroacetic Acid Salt] |  | > 100 µg/mL | 19 µg/mL | 5 µM
3 | NC1CCC(Nc2cc(C(F)(F)F)cc3c2Nc2ccccc2S3)CC1 (stereo not drawn) [compound 180, N1-(3-(trifluoromethyl)-10H-phenothiazin-1-yl)cyclohexane-1,4-diamine] | 87 µM | 14 µg/mL (≈ 36.9 µM) | 7 µg/mL (≈ 18.4 µM) | 
4 | CN(C)CCCN1c2ccccc2Sc2cc(-c3ccnc(F)c3)ccc21 [compound 122, 3-(3-(2-fluoropyridin-4-yl)-10H-phenothiazin-10-yl)-N,N-dimethylpropan-1-amine] | > 100 µM | > 100 µg/mL | 24 µg/mL (≈ 63.2 µM) | 
5 | FC(F)(F)c1cc(NC2CNC2)c2c(c1)Sc1ccccc1N2 [compound 193, N-(azetidin-3-yl)-3-(trifluoromethyl)-10H-phenothiazin-1-amine] | 180 µM | 22 µg/mL (≈ 65.2 µM) | 5 µg/mL (≈ 14.8 µM) | 
6 | NCCN(CCN)CCN1CCC(Nc2cc(C(F)(F)F)cc3c2Nc2ccccc2S3)CC1.O=C(O)C(F)(F)F [compound 216, N1-(2-aminoethyl)-N1-(2-(4-((3-(trifluoromethyl)-10H-phenothiazin-1-yl)amino)piperidin-1-yl)ethyl)ethane-1,2-diamine 2,2,2-trifluoroacetate salt] | 5 µM | 19 µg/mL | 5 µg/mL | 
7 | NC1CCCC(C(=O)Nc2cc(C(F)(F)F)cc3c2Nc2ccccc2O3)C1 (stereo not drawn) [compound 156, 3-amino-N-(3-(trifluoromethyl)-10H-phenoxazin-1-yl)cyclohexane-carboxamide] | > 100 µM | 25 µg/mL (≈ 63.9 µM) | 13 µg/mL (≈ 33.2 µM) | 
8 | FC(F)(F)c1cc(NC2CCNCC2)c2c(c1)Oc1ccccc1N2 [compound 169, N-(piperidin-4-yl)-3-(trifluoromethyl)-10H-phenoxazin-1-amine] | 36 µM | 45 µg/mL (≈ 129 µM) | 11 µg/mL (≈ 31.5 µM) | 
9 | CN(C)CCCN1c2ccccc2Sc2cc(-c3nc4ccccc4[nH]3)ccc21 [compound 137, 3-(3-(1H-benzo[d]imidazol-2-yl)-10H-phenothiazin-10-yl)-N,N-dimethylpropan-1-amine] | 160 µM | > 100 µg/mL | 13 µg/mL (≈ 32.5 µM) | 
10 | CN(C)CCCN1c2ccccc2Sc2cc(C(F)(F)F)cc(NC(N)=S)c21 [compound 87, 1-(10-(3-(Dimethylamino)propyl)-3-(trifluoromethyl)-10H-phenothiazin-1-yl)thiourea] | > 100 µM | > 100 µg/mL | 55 µg/mL (≈ 129 µM) | 
11 | CN(C)CCCN1c2ccccc2Sc2cc(Cl)cc(N)c21 [compound 89, 3-chloro-10-(3-(dimethylamino)propyl)-10H-phenothiazin-1-amine] | > 100 µM | > 100 µg/mL | 85 µg/mL (≈ 255 µM) | 
12 | CN(C)CCCN1c2ccccc2Sc2cc(-c3ccccc3)ccc21 [compound 110, N,N-dimethyl-3-(3-phenyl-10H-phenothiazin-10-yl)propan-1-amine] | > 100 µM | > 100 µg/mL | 6 µg/mL (≈ 16.6 µM) | 
13 | FC(F)(F)c1cc(NC2CCCNCC2)c2c(c1)Sc1ccccc1N2 (stereo not drawn) [compound 221, N-(azepan-4-yl)-3-(trifluoromethyl)-10H-phenothiazin-1-amine] | > 100 µM | 24 µg/mL (≈ 63.2 µM) | 6 µg/mL (≈ 15.8 µM) | 
14 | O=C(Nc1cc(C(F)(F)F)cc2c1Nc1ccccc1S2)C1CCCC(O)C1 (stereo not drawn) [compound 148, 3-hydroxy-N-(3-(trifluoromethyl)-10H-phenothiazin-1-yl)cyclohexane-carboxamide] | > 100 µM | > 100 µg/mL | 26 µg/mL (≈ 63.7 µM) | 
15 | NCCCNC1CCCC(C(=O)Nc2cc(C(F)(F)F)cc3c2Nc2ccccc2S3)C1 (stereo not drawn) [compound 162, 3-((3-aminopropyl)amino)-N-(3-(trifluoromethyl)-10H-phenothiazin-1-yl)cyclohexane-carboxamide] | 50 µM | > 100 µg/mL | 30 µg/mL (≈ 64.6 µM) | 
16 | Nc1cccc(C(=O)Nc2cc(C(F)(F)F)cc3c2Nc2ccccc2S3)c1 [compound 134, 3-amino-N-(3-(trifluoromethyl)-10H-phenothiazin-1-yl)benzamide] | > 100 µM | > 100 µg/mL | 6 µg/mL (≈ 14.9 µM) | 
17 | FC(F)(F)c1cc(NC2CCNCC2)c2c(c1)Sc1cc(Cl)ccc1N2 [compound 223, 7-chloro-N-(piperidin-4-yl)-3-(trifluoromethyl)-10H-phenothiazin-1-amine] | 24 µM | 6 µg/mL (≈ 15 µM) | 3 µg/mL (≈ 7.5 µM) | 

Row | Compound | IC50 [1] | MIC [2] | MIC [3] | IC50 ([1]; trifluoroacetic Acid Salt)
18 | Clc1cc(NC2CCNCC2)c2c(c1)Sc1ccccc1N2 [compound 184, 3-chloro-N-(piperidin-4-yl)-10H-phenothiazin-1-amine] | 11 µM | 21 µg/mL (≈ 63.3 µM) | 5 µg/mL (≈ 15.1 µM) | 
19 | O=C(Nc1cc(C(F)(F)F)cc2c1Nc1ccccc1S2)[C@@H]1CCCNC1 [compound 100, (R)-N-(3-(trifluoromethyl)-10H-phenothiazin-1-yl)piperidine-3-carboxamide] | > 100 µM | 32 µg/mL (≈ 81.3 µM) | 16 µg/mL (≈ 40.7 µM) | 
20 | CN(C)CCCN1c2ccccc2Sc2cc(-c3ccc4[nH]cnc4c3)ccc21 [compound 117, 3-(3-(1H-benzo[d]imidazol-5-yl)-10H-phenothiazin-10-yl)-N,N-dimethylpropan-1-amine] | > 100 µM | > 100 µg/mL | 26 µg/mL (≈ 64.9 µM) | 
21 | NCCN1CCC(Nc2cc(C(F)(F)F)cc3c2Nc2ccc(CN)cc2S3)CC1.O=C(O)C(F)(F)F.O=C(O)C(F)(F)F [compound 227, N-(1-(2-Aminoethyl)piperidin-4-yl)-7-(aminomethyl)-3-(trifluoromethyl)-10H-phenothiazin-1-amine bis(2,2,2-trifluoroacetate)] | 7 µM | 43 µg/mL | 5 µg/mL | 
22 | FC(F)(F)c1cc2c3c(c1)nc(C1CCNCC1)n3-c1ccccc1S2 [compound 232, 1-(piperidin-4-yl)-4-(trifluoromethyl) imidazo[4,5,1-kl]phenothiazine] | 29 µM | 24 µg/mL (≈ 63.9 µM) | 6 µg/mL (≈ 16 µM) | 
23 | O=C(CCN1CCNCC1)Nc1cc(C(F)(F)F)cc2c1Nc1ccccc1S2 [compound 101, 3-(piperazin-1-yl)-N-(3-(trifluoromethyl)-10H-phenothiazin-1-yl)propanamide] | > 100 µM | 64 µg/mL (≈ 151 µM) | 32 µg/mL (≈ 75.7 µM) | 
24 | NCC1CCC(CNc2cc(C(F)(F)F)cc3c2Nc2ccccc2S3)CC1 (stereo not drawn) [compound 158, N-((4-(aminomethyl)cyclohexyl)methyl)-3-(trifluoromethyl)-10H-phenothiazin-1-amine] | 53 µM | 52 µg/mL (≈ 128 µM) | 3 µg/mL (≈ 7.36 µM) | 
25 | N#Cc1cc(NC2CCN(CCN)CC2)c2c(c1)Sc1ccccc1N2 [compound 215, 1-((1-(2-aminoethyl)piperidin-4-yl)amino)-10H-phenothiazine-3-carbonitrile] | > 100 µM | 47 µg/mL (≈ 129 µM) | 23 µg/mL (≈ 62.9 µM) | 
26 | NC[C@H]1CC[C@H](C(=O)Nc2cc(C(F)(F)F)cc3c2Nc2ccccc2O3)CC1 [compound 160, (1r,4r)-4-(aminomethyl)-N-(3-(trifluoromethyl)-10H-phenoxazin-1-yl)cyclohexane-carboxamide] | 60 µM | 52 µg/mL (≈ 128 µM) | 26 µg/mL (≈ 64.1 µM) | 
27 | NC[C@H]1CCC[C@H](CNc2cc(C(F)(F)F)cc3c2Nc2ccccc2S3)C1 [compound 189, N-(((1S,3S)-3-(aminomethyl)cyclohexyl)methyl)-3-(trifluoromethyl)-10H-phenothiazin-1-amine] | > 100 µM | 52 µg/mL (≈ 128 µM) | 3 µg/mL (≈ 7.36 µM) | 
28 | NCCN1CCC(Nc2cc(Cl)cc3c2Nc2ccccc2S3)CC1 [compound 214, N-(1-(2-aminoethyl)piperidin-4-yl)-3-chloro-10H-phenothiazin-1-amine] | > 100 µM | 24 µg/mL (≈ 64 µM) | 12 µg/mL (≈ 32 µM) | 
29 | NC1CCCC(c2nc3cc(C(F)(F)F)cc4c3n2-c2ccccc2S4)C1 (stereo not drawn) [compound 191, 3-(4-(trifluoromethyl)imidazo[4,5,1-kl]phenothiazin-1-yl)cyclohexan-amine] | 19 µM | 50 µg/mL (≈ 128 µM) | 6 µg/mL (≈ 15.4 µM) | 
30 | Nc1cc(C(F)(F)F)cc2c1N(CCCN1CCNCC1)c1ccccc1S2 [compound 83, 10-(3-(piperazin-1-yl)propyl)-3-(trifluoromethyl)-10H-phenothiazin-1-amine] | > 100 µM | > 100 µg/mL | 32 µg/mL (≈ 78.3 µM) | 
31 | O=C(Nc1cc(C(F)(F)F)cc2c1Nc1ccccc1S2)[C@H]1CCCNC1 [compound 106, N-(3-(trifluoromethyl)-10H-phenothiazin-1-yl)piperidine-3-carboxamide] | > 100 µM | 64 µg/mL (≈ 163 µM) | 32 µg/mL (≈ 81.3 µM) | 
32 | NC1CCCC(C(=O)Nc2cc(Cl)cc3c2Nc2ccccc2S3)C1 (stereo not drawn) [compound 161, 3-amino-N-(3-chloro-10H-phenothiazin-1-yl)cyclohexane-carboxamide] | 68 µM | 96 µg/mL (≈ 257 µM) | 24 µg/mL (≈ 64.2 µM) | 
33 | O=C(Nc1cc(C(F)(F)F)cc2c1Nc1ccccc1S2)C1CCNCC1 [compound 207, N-(3-(trifluoromethyl)-10H-phenothiazin-1-yl)piperidine-4-carboxamide] | 109 µM | 50 µg/mL (≈ 127 µM) | 25 µg/mL (≈ 63.5 µM) | 
34 | CN1c2ccccc2Sc2cc(C(F)(F)F)cc(NC3CCN(CCN)CC3)c21 [compound 218, N-(1-(2-aminoethyl)piperidin-4-yl)-10-methyl-3-(trifluoromethyl)-10H-phenothiazin-1-amine] | 68 µM | 7 µg/mL (≈ 16.6 µM) | 7 µg/mL (≈ 16.6 µM) | 
